In this experiment the target is T1, recombinant His-tagged cytoplasmic domains of TRKA receptor (NTRK1, PV3144, aa 441-796) (Homo sapiens, UniProt P04629).
T1 construct: aa 441-796; His; purchased Invitrogen PV3144
T1 sequence (P04629 441-796): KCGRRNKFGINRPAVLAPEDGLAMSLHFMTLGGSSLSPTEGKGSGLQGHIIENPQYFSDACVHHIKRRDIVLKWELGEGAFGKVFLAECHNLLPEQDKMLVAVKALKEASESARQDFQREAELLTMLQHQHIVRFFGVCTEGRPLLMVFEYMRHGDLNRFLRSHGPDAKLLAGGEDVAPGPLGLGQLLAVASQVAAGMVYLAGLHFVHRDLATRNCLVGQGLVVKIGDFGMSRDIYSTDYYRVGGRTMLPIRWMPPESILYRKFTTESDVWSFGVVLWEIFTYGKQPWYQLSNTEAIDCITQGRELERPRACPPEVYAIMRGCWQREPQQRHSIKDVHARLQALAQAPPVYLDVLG
Kind of experiment: Isolated TRK enzyme assay (HTRF KinEASE-TK, PV3144 TrkA enzyme assay). Type of experiment: biochemical. Conditions: 4 nM enzyme, 40 uM ATP, 35 min, arithmetic mean where more than one reading. The protocol:
Isolated TRK Enzyme assays use the HTRF KinEASE-TK kit (Cisbio Cat #62TK0PEJ) with recombinant His-tagged cytoplasmic domains of TRKA receptor sourced from Invitrogen (see table below). This activity-assay measures the phosphorylation of tyrosine residues within a substrate from the HTRF kit which has been validated by Cisbio for a variety of tyrosine kinases including the TRK receptors.
0.5 mM stock solutions of test compounds are prepared and serially diluted in 100% DMSO. […] Greiner low volume black plates containing 0.2 ul of serially diluted compound, standard and HPE/ZPE are created using the Bravo nanolitre dispenser.
1× enzyme buffer is prepared from 5× Enzymatic Buffer from the Cisbio KinEASE TK kit using MilliQ water. The buffer is then supplemented with 10 mM MgCl and 2 mM DTT (both from Sigma).
Following this preactivation step, 5 ul/well of enzyme+ATP mix is added using a Multidrop Micro to the assay plate, spotted with 0.2 ul 100% DMSO compound. This is left for 20 mins at room temperature before adding 5 ul of 2 uM TK-substrate-Biotin (from the Cisbio kit) diluted in 1× enzyme buffer (1 uM FAC) using the Multidrop Micro. The reaction is incubated at room temperature for the optimized assay reaction time (see table).
After the Detection Reagent addition, plates are covered and incubated at room temperature for 60 minutes. […] Test compound data are expressed as percentage inhibition defined by HPE and ZPE values for each plate. Percentage inhibition in the presence of test compound is plotted against compound concentration on a log scale to determine an IC50 from the resultant sigmoid curve.
Where more than one reading was taken, the arithmetic mean is presented.
Turning to `NC(=O)c1cc(-c2cccc(CO)c2)ccc1OC1CCN(C(=O)Cc2ccc(OC(F)(F)F)cc2)CC1` [Example 106, 3′-(hydroxymethyl)-4-[(1-{[4-(trifluoromethoxy)phenyl]acetyl}piperidin-4-yl)oxy]biphenyl-3-carboxamide], the IC50 is 5.3 nM.

As for `CS(=O)(=O)Cn1cc(-c2cc(C(N)=O)c(O[C@@H]3CCN(C(=O)Cc4ccc(OC5CC5)cc4)C[C@@H]3F)cn2)cn1` [Example 35, 5-{[(3S,4R)-1-{[4-(cyclopropyloxy)phenyl]acetyl}-3-fluoropiperidin-4-yl]oxy}-2-{1-[(methylsulfonyl)methyl]-1H-pyrazol-4-yl}pyridine-4-carboxamide], the IC50 came to 7.7 nM.

For `Cn1cc(-c2ccc(OC3CCN(C(=O)Cc4ccc(OC(F)(F)F)cn4)CC3)c(C(N)=O)c2)cn1` [Example 10, 5-(1-methyl-1H-pyrazol-4-yl)-2-[(1-{[5-(trifluoromethoxy)pyridin-2-yl]acetyl}piperidin-4-yl)oxy]benzamide], the IC50 is 9.9 nM.

In the case of `Cn1cc(-c2ccc(OC3CCN(C(=O)Cc4ccc(OC(F)(F)F)c(F)c4)CC3)c(C(N)=O)c2)cn1` [Example 111, 2-[(1-{[3-fluoro-4-(trifluoromethoxy)phenyl]acetyl}piperidin-4-yl)oxy]-5-(1-methyl-1H-pyrazol-4-yl)benzamide], the IC50 was 4.5 nM.

Regarding `Cc1nc(-c2cnc(O[C@H]3CCN(C(=O)Cc4ccc(OC(F)(F)F)cc4)C[C@H]3F)c(C(N)=O)c2)c[nH]1` [Example 118, 2-{[(3R,4S)-3-fluoro-1-{[4-(trifluoromethoxy)phenyl]acetyl}piperidin-4-yl]oxy}-5-(2-methyl-1H-imidazol-4-yl)pyridine-3-carboxamide], the IC50 worked out at 1.1 nM.

In the case of `CCc1ccc(CC(=O)N2CCC(Oc3ccc(-c4cnn(C)c4)cc3C(N)=O)CC2)cc1` [Example 153, 2-({1-[(4-ethylphenyl)acetyl]piperidin-4-yl}oxy)-5-(1-methyl-1H-pyrazol-4-yl)benzamide], the IC50 stood at 19.3 nM.

In the case of `NC(=O)c1cc(-c2cn(C[C@@H](O)CO)cn2)ccc1OC1CCN(C(=O)Cc2ccc(OC(F)(F)F)cc2)CC1` [Example 126, 5-{1-[(2R)-2,3-dihydroxypropyl]-1H-imidazol-4-yl}-2-[(1-{[4-(trifluoromethoxy)phenyl]acetyl}piperidin-4-yl)oxy]benzamide], the IC50 was found to be 2.9 nM.

`CC(C)(O)Cn1cc(-c2ccc(O[C@H]3CCN(C(=O)Cc4ccc(OC5CC5)cn4)C[C@H]3F)c(C(N)=O)c2)cn1` (racemic) [Example 45]: the IC50 is 1.8 nM.

For the compound `Cn1cc(-c2ccc(OC3CCN(C(=O)Nc4ccc(OC(F)(F)F)cc4F)CC3)c(C(N)=O)c2)cn1` [Example 140, 4-(2-carbamoyl-4-(1-methyl-1H-pyrazol-4-yl)phenoxy)-N-(2-fluoro-4-(trifluoromethoxy)phenyl)piperidine-1-carboxamide], the IC50 is 10.3 nM.

`CS(=O)(=O)Cn1cc(-c2cc(C(N)=O)c(O[C@@H]3CCN(C(=O)Cc4ccc(OC(F)(F)F)cc4)C[C@@H]3F)cn2)cn1` [Example 36, 5-{[(3S,4R)-3-fluoro-1-{[4-(trifluoromethoxy)phenyl]acetyl}piperidin-4-yl]oxy}-2-{1-[(methylsulfonyl)methyl]-1H-pyrazol-4-yl}pyridine-4-carboxamide]: the IC50 turned out to be 3.4 nM.

As for `CC(C)c1ccc(CC(=O)N2CCC(Oc3ccc(-c4cnn(C)c4)cc3C(N)=O)CC2)cc1` [Example 109, 5-(1-methyl-1H-pyrazol-4-yl)-2-[(1-{[4-(propan-2-yl)phenyl]acetyl}piperidin-4-yl)oxy]benzamide], the IC50 turned out to be 7.1 nM.

Regarding `NC(=O)c1cc(-c2nccs2)ccc1OC1CCN(C(=O)Cc2ccc(OC(F)(F)F)cc2)CC1` [Example 100, 5-(1,3-thiazol-2-yl)-2-[(1-{[4-(trifluoromethoxy)phenyl]acetyl}piperidin-4-yl)oxy]benzamide], the IC50 came out at 8.5 nM.

As to `Cc1nc(-c2ccc(O[C@@H]3CCN(C(=O)Cc4ccc(OC(F)(F)F)cc4)C[C@@H]3F)c(C(N)=O)c2)c[nH]1` [Example 121], the IC50 worked out at 1.5 nM.

In the case of `Cn1cnc(-c2ccc(O[C@@H]3CCN(C(=O)Cc4ccc(OC(F)(F)F)cc4)C[C@H]3F)c(C(N)=O)c2)c1` [Example 53, 2-(((3R,4R)-3-fluoro-1-(2-(4-(trifluoromethoxy)phenyl)acetyl)piperidin-4-yl)oxy)-5-(1-methyl-1H-imidazol-4-yl)benzamide], the IC50 amounted to 1.2 nM.

On to `NC(=O)c1cc(-c2cnn(C[C@H](O)CO)c2)ccc1OC1CCN(C(=O)Cc2ccc(OC(F)(F)F)cc2)CC1` [Example 119, 5-{1-[(2S)-2,3-dihydroxypropyl]-1H-pyrazol-4-yl}-2-[(1-{[4-(trifluoromethoxy)phenyl]acetyl}piperidin-4-yl)oxy]benzamide], for which the half-inhibitory concentration (IC50) turned out to be 8 nM.

Take `Cn1cc(-c2cnc(O[C@H]3CCN(C(=O)Cc4ccc(OC(F)(F)F)cc4)C[C@H]3F)c(C(N)=O)c2)cn1` [Example 4, 2-{[(3R,4S)-3-fluoro-1-{[4-(trifluoromethoxy)phenyl]acetyl}piperidin-4-yl]oxy}-5-(1-methyl-1H-pyrazol-4-yl)pyridine-3-carboxamide]: the IC50 came to 1.2 nM.

For the compound `Cn1cnc(-c2ccc(OC3CCN(C(=O)Cc4ccc(OC(C)(F)F)cn4)CC3)c(C(N)=O)c2)c1` [Example 168, 2-[(1-{[5-(1,1-difluoroethoxy)pyridin-2-yl]acetyl}piperidin-4-yl)oxy]-5-(1-methyl-1H-imidazol-4-yl)benzamide], the IC50 turned out to be 17.3 nM.

With `NC(=O)c1cc(-c2cn(CCO)cn2)cnc1OC1CCN(C(=O)Cc2ccc(OC(F)(F)F)cc2)CC1` [Example 116, 5-[1-(2-hydroxyethyl)-1H-imidazol-4-yl]-2-[(1-{[4-(trifluoromethoxy)phenyl]acetyl}piperidin-4-yl)oxy]pyridine-3-carboxamide], the half-inhibitory concentration (IC50) is 8.1 nM.

As for `Cc1nc(C)c(-c2ccc(OC3CCN(C(=O)Cc4ccc(OC(F)(F)F)cc4)CC3)c(C(N)=O)c2)s1` [Example 143, 5-(2,4-dimethyl-1,3-thiazol-5-yl)-2-[(1-{[4-(trifluoromethoxy)phenyl]acetyl}piperidin-4-yl)oxy]benzamide], the IC50 is 16.5 nM.

Turning to `NC(=O)c1cc(-c2c[nH]c(C3(F)COC3)n2)ccc1OC1CCN(C(=O)Cc2ccc(OC(F)(F)F)cc2)CC1` [Example 117, 5-[2-(3-fluorooxetan-3-yl)-1H-imidazol-4-yl]-2-[(1-{[4-(trifluoromethoxy)phenyl]acetyl}piperidin-4-yl)oxy]benzamide], the concentration for half-maximal inhibition (IC50) stood at 10.8 nM.

In the case of `CS(=O)(=O)Cn1cc(-c2cnc(O[C@@H]3CCN(C(=O)Cc4ccc(OC(F)(F)F)cc4)C[C@@H]3F)c(C(N)=O)c2)cn1` [Example 55, 2-{[(3S,4R)-3-fluoro-1-{[4-(trifluoromethoxy)phenyl]acetyl}piperidin-4-yl]oxy}-5-{1-[(methylsulfonyl)methyl]-1H-pyrazol-4-yl}pyridine-3-carboxamide], the half-inhibitory concentration (IC50) stood at 1.8 nM.

For `Cn1cncc1-c1ccc(OC2CCN(C(=O)Cc3ccc(OC(F)(F)F)cc3)CC2)c(C(N)=O)c1` [Example 145, 5-(1-methyl-1H-imidazol-5-yl)-2-[(1-{[4-(trifluoromethoxy)phenyl]acetyl}piperidin-4-yl)oxy]benzamide], the concentration for half-maximal inhibition (IC50) was determined as 17.1 nM.

Consider `Cn1cc(-c2ccc(OC3CCN(C(=O)Cc4ccc(OC(F)(F)F)cc4)CC3)c(C(N)=O)c2)c(C#N)n1` [Example 149, 5-(3-cyano-1-methyl-1H-pyrazol-4-yl)-2-[(1-{[4-(trifluoromethoxy)phenyl]acetyl}piperidin-4-yl)oxy]benzamide], for which the IC50 stood at 13.7 nM.

As for `NC(=O)c1cc(-c2c[nH]cn2)cnc1O[C@H]1CCN(C(=O)Cc2ccc(OC(F)(F)F)cc2)C[C@@H]1F` [Example 82, 2-{[(3S,4S)-3-fluoro-1-{[4-(trifluoromethoxy)phenyl]acetyl}piperidin-4-yl]oxy}-5-(1H-imidazol-4-yl)pyridine-3-carboxamide], the half-inhibitory concentration (IC50) turned out to be 4.2 nM.

For `CC(C)(O)Cn1cc(-c2ccc(O[C@@H]3CCN(C(=O)Cc4ccc(OC5CC5)cn4)C[C@H]3F)c(C(N)=O)c2)cn1` (racemic) [Example 43], the concentration for half-maximal inhibition (IC50) amounted to 6.9 nM.

As for `NC(=O)c1cc(-c2cnn(C3CS(=O)(=O)C3)c2)cnc1O[C@@H]1CCN(C(=O)Cc2ccc(OC(F)(F)F)cc2)C[C@@H]1F` [Example 23, 5-[1-(1,1-dioxidothietan-3-yl)-1H-pyrazol-4-yl]-2-{[(3S,4R)-3-fluoro-1-{[4-(trifluoromethoxy)phenyl]acetyl}piperidin-4-yl]oxy}pyridine-3-carboxamide], the IC50 came out at 1.4 nM.

As to `NC(=O)c1cc(-c2cscn2)ccc1OC1CCN(C(=O)Cc2ccc(OC(F)(F)F)cc2)CC1` [Example 101, 5-(1,3-thiazol-4-yl)-2-[(1-{[4-(trifluoromethoxy)phenyl]acetyl}piperidin-4-yl)oxy]benzamide], the IC50 worked out at 9.4 nM.

Regarding `NC(=O)c1cc(-c2cn(C[C@H](O)CO)cn2)ccc1OC1CCN(C(=O)Cc2ccc(OC(F)(F)F)cc2)CC1` [Example 125], the 50% inhibitory concentration (IC50) came to 6.6 nM.

Values taken from patent US20170305857A1, “N-ACYLPIPERIDINE ETHER TROPOMYOSIN-RELATED KINASE INHIBITORS” (Pfizer Limited, priority 2014, published 2017).
